Experimental data from US10870635B2, “Compounds and their use as BACE1 inhibitors” (ALLGENESIS BIOTHERAPEUTICS, INC., priority 2015, dated 2020).

System: Aβ38, Aβ40 and Aβ42 in CSF
Assay: Efficacy study in monkeys: Aβ biomarkers in CSF after single oral administration
Type: in vivo, cynomolgus monkeys
Conditions: Monkey CSF
Excerpt: Certain isoforms of amyloid β peptide (AR), such as Aβ338, Aβ340 and Aβ342 have been established as relevant biomarkers that reflect BACE1 activity and have been exploited to establish translational relationships between different cellular assays and animal models. In this efficacy study, mammals were used to assess amyloid β reduction with BACE1 inhibitors. In a clinical setting, plasma and cerebrospinal fluid (CSF) are the accessible compartments to measure soluble amyloid β levels to determine target profile. It is important to analyze plasma and CSF levels which relate to changes in brain amyloid β levels. The concentration of BACE1 inhibitors and their time-dependent reduction of plasma, CSF and brain amyloid β levels were investigated following intravenous and oral administrations of BACE1 inhibitors.
a (ii). Formulation for PO administration: 5% (v/v) PEG400+95% (v/v) of 1% (w/v) methyl cellulose in water (the viscosity of methyl cellulose is 20 g/L, 20° C., cPa·s: 350.0-550.0). The test article solutions were prepared by dissolving the compound in PEG400 followed by the addition of the aqueous solution to the final volume.
For the oral formulation of a BACE1 inhibitor in the monkey efficacy study (at the dose of 20 mg/kg with the concentration of 2 mg/ml)
1) Weighed […] of the selected BACE1 inhibitors into a clean vial;
2) Added 2.826 mL of PEG400 into the tube containing the compound. Then vortexed for 5 min and sonicated for 45 min;
3) Added 53.688 mL of 1% MC in water into the tube containing the compound. Then vortexed for 4 min and sonicated for 4 min; and
4) Adjusted the pH to the physiological value by using 1N NaOH.
Several studies have shown that drug transport into the CNS may be more similar between humans and primates. […] To explore the mechanism of BACE1 compounds, the compounds were tested using this in vivo study. […] The monkey Aβ reduction study usually takes 3 weeks.
The time-course profiles of neurodegeneration biomarkers were determined following single oral administration of the selected BACE1 inhibitors to male cynomolgus monkeys. Blood samples were collected from all animals via the saphenous vein or cephalic vein at 0 (pre-dose), 0.5, 1, 3, 6, 8, 12 and 24 hr post-dose into test tubes containing potassium ethylenediaminotetraacetic acid (K2EDTA). CSF samples were collected via a pre-implanted cannula at the foramina occipital magnum site at 0 (pre-dose), 3, 6, 12 and 24 hr post-dose.
Plasma was separated from the blood by centrifugation at 4° C. and stored at −80° C. until analyzing. The biomarkers of Aβ38, Aβ40 and Aβ42 in CSF were quantified using Meso Scale Discovery (MSD) multiplex electrochemiluminescence immunoassay according to the manufacturer's instructions. The plates were first blocked with 150 μL of Diluent 35 for 1 hour at room temperature with constant shaking at 600 rpm. After washing three times with 200 μL washing buffer, 25 μL of 1× detection antibody solution, plus Aβ40 blocker, 25 μL of seven standards, zero standard and four-fold diluted samples were added to the assay plate. The plate was incubated for 2 hours at room temperature, with constant shaking at 600 rpm. Upon finishing, the plate was washed three times with washing buffer and read in a Sector Imager 6000 (MSD) immediately after addition of 150 μL of 2× Read Buffer T. Aβ concentrations were calculated with reference to the standard curves of each individual peptide and expressed as pg/mL using SoftMax Pro GXP 5.4.4.

SMILES | % of maximum Aβ40 inhibition over 24 hours [%]
CC#Cc1ccc2sc3ccc([C@]4(C)CS(=O)(=O)C(C)(C)C(N)=N4)cc3c2c1 [Example 103, (R)-5-Amino-3,6,6-trimethyl-3-(8-(prop-1-yn-1-yl)dibenzo[b,d]thiophen-2-yl)-3,6-dihydro-2H-1,4-thiazine 1,1-dioxide] | 45.9
CC#Cc1ccc2sc3cc(F)c([C@]4(C)CS(=O)(=O)C(C)(C)C(=N)N4)cc3c2c1 [Example 109, (R)-5-Amino-3-(3-fluoro-8-(prop-1-yn-1-yl)dibenzo[b,d]thiophen-2-yl)-3,6,6-trim ethyl-3,6-dihydro-2H-1,4-thiazine 1,1-dioxide] | 37.3
